From US20260317309A1, “N-HETEROCYLIC GPCR RECEPTOR AGONISTS, PHARMACEUTICAL COMPOSITIONS COMPRISING THE SAME, AND METHODS FOR THEIR USE” (Carmot Therapeutics, Inc., priority 2022, published 2026) come the findings set out here.

The test has as its target T1, human GLP-1 receptor (Homo sapiens, UniProt P43220).
T1 construct: expressed in transfected cells
As to the kind of experiment: GLP-1R cAMP assay (cAMP accumulation in CHO cells stably overexpressing the human GLP-1 receptor, HitHunter kit). The settings on record: CHO cells stably overexpressing human GLP-1R, 30 min, 20-point dose response in triplicate. In kind it is cell-based. Summed up: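 CHO cells stably expressing the human receptor (10,000/well) in HBSS with 10 mM HEPES and 625 μM IBMX, given compound as a 20-point dose response in triplicate for 30 min. cAMP was read by luminescent enzyme-complementation detection after overnight incubation, and EC50 was fitted from dose-response curves.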
On the technique in general: Cyclic AMP is a second messenger, typically raised through Gs and lowered through Gi signalling.

Usually EC50 stands for the concentration giving half of the maximal effect.

T1 sequence (P43220 24-463): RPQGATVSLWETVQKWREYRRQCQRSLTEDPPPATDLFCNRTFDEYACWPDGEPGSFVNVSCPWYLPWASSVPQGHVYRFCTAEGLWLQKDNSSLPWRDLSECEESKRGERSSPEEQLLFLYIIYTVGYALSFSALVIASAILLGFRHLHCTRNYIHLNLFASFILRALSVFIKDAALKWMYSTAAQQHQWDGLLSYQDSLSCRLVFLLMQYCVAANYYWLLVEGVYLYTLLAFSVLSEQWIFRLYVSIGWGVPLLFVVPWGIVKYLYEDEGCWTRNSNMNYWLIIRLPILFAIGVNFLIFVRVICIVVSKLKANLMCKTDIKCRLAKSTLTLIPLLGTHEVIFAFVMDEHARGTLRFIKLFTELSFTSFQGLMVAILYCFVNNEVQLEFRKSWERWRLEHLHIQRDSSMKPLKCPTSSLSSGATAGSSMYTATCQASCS

Compound `O=C(O)c1cc(F)c2nc(CN3CCC(Oc4ccnc(COc5ncc(Cl)cc5F)c4)CC3)n(C[C@@H]3CCO3)c2c1` [Compound 613, (S)-2-((4-((2-(((5-Chloro-3-fluoropyridin-2-yl)oxy)methyl)pyridin-4-yl)oxy)piperidin-1-yl)methyl)-4-fluoro-1-(oxetan-2-ylmethyl)-1H-benzo[d]imidazole-6-carboxylic acid] displayed an EC50 of 0.1 to 1 nM.
